Experimental data published in article PMC6312359, “Diisopropylphenyl-imidazole (DII): A new compound that exerts anthelmintic activity through novel molecular mechanisms” (PLoS Neglected Tropical Diseases, 2018).
Entries after “also recorded” stand apart in the source; their conditions may differ.

Experiments:
[1] = system: C. elegans mutant strains; assay: DII nematicidal effect on mutant strains; assay type: in vivo, Caenorhabditis elegans
Experimental: To evaluate DII nematicidal effects on mutant strains two different conditions were tested: i) ~40 L4s were exposed to DII (600 μM) in NGM plates and survival was scored at 4, 8, 24, 48 and 72 h, ii) ~40 L4s were exposed to 50 μM for 96 h and survival was subsequently scored. […] At least three independent experiments were analyzed.

[2] = system: C. elegans; assay: Screening imidazole compounds: worm survival; assay type: in vivo, Caenorhabditis elegans; details: 150 μg/ml, 72 h, 20°C, young adult wild-type worms, liquid medium (S-Basal) with E. coli OP50
Experimental: 100–150 young adult wild-type worms were exposed to these compounds (150 μg/ml) in liquid medium (S-Basal) containing E. coli OP50. Micromolar concentrations for each compound are: 487 μM for 1, 428 μM for 2, 410 μM for 3, 375 μM for 4, 789 μM for 5, 735 μM for 6, 389 μM for 7, 319 μM for 8, 263 μM for 9, 806 μM for 10 and 657 μM for 11. Compounds were dissolved in water or DMSO according to their solubility. After 72 h, animal survival was analyzed. An animal was considered dead if it made no movement in response to gentle prodding with a worm pick. At least three independent experiments were analyzed.
We exposed 100–150 young adult worms to these compounds in liquid medium (S-Basal) containing the bacteria E. coli OP50 as a food source. After 72 h at 20°C, we analyzed worm survival (Fig 1B). […] The drug concentration chosen for this screening was 150 μg/ml, which is similar to those used in other screening studies. The corresponding molar concentration for each compound is detailed in Materials and Methods. Depending on their solubility properties, the compounds were dissolved either in water or DMSO (up to 0.75% final concentration).

[3] = system: C. elegans; assay: Lethality assays, dose-dependent, wild-type L4; assay type: in vivo, Caenorhabditis elegans; details: for LC50: Caenorhabditis elegans, L4 wild-type
Experimental: Dose-dependent lethality was quantified by exposing 40 L4s to DII (0–1000 μM) dissolved in solid medium for 8 and 24 h at 20°C. For survival to 96 h of DII exposure the temperature used was 13°C to avoid food depletion.

[4] = system: C. elegans; assay: Worm cut preparation paralysis; assay type: in vivo, Caenorhabditis elegans; details: 10 min; DII 600 μM, levamisole 10 μM; listed as DII
Experimental: Cutworm assays were performed as previously described with slight modifications. Briefly, synchronized young adult animals were mounted in a glass microscope slide containing Artificial Perienteric Fluid (APF) (67 mM NaCl, 67 mM NaCH3COOH, 3 mM KCl, 15.7 mM MgCl2, 3 mM CaCl2 and 5 mM Tris, pH 7.6). 10 animals were severed between the middle and tail, approximately two-thirds from the anterior end. Worms were subsequently transferred to a multi-well plate containing APF or drug-APF and paralysis was evaluated after 10 minutes. All experiments were performed at least three times.

[5] = system: C. elegans; assay: Recovery assays; assay type: in vivo, Caenorhabditis elegans; details: 600 μM, 4 and 8 h of exposure, scored 24 h later
Experimental: To evaluate the recovery capacity of worms treated with DII, ~100 L4 worms were transferred to NGM plates containing DII (600 μM). After 4 and 8 h of exposure, those animals that survived were transferred to regular NGM plates. Worm viability was scored 24 h later. Results are expressed as the percentage of alive animals 24 h after being transferred to regular NGM plates. The experiment was independently repeated three times.

[6] = system: Drosophila melanogaster; assay: Drosophila melanogaster larval viability; assay type: in vivo; details: 300–1200 μM in food, about 40 h of exposure
Experimental: All experiments were done at 25°C, under a 12:12 dark:light cycle using the w^1118 strain. Mated females were allowed to lay eggs for 4 h on apple juice egg laying plates supplemented with a thin layer of normal fly food. 2 h after the initiation of egg laying was considered time "0". 30–40 late L2 larvae (66 h after egg laying) were transferred from the plates to tubes containing 3 ml of fly food with 300, 600 and 1200 μM DII or the corresponding concentration of dimethylsulfoxide (DMSO, molecular biology grade, AppliChem). Under these conditions, larvae were exposed to DII until they left the food to pupariate about 40 h later. Larval viability was calculated as the percentage of larvae that reached the pupal stage.
To add drugs, fly food was melted and cooled to 60°C, 3 ml of food were dispensed in tubes and an appropriate volume of DMSO or drug was added and thoroughly mixed. Control tubes without DMSO and […] were prepared following the same procedure. The experiment was independently repeated at least three times.

[7] = system: HEK-293 cells; assay: Human cell toxicity, propidium iodide staining; assay type: cell-based
Experimental: HEK-293 cells were cultured in DMEM medium (Gibco, USA) containing 10% fetal bovine serum (FBS) (Gibco, USA) and penicillin/streptomycin (Gibco, USA) at 37°C in an atmosphere containing 5% CO2. Before DII exposure, cells were dissociated using trypsin-EDTA and seeded in 96 multiwell plates at a density of 1x10^4 cells/ml. Cells were resuspended in fresh medium and different drug concentrations were subsequently added. After 8 h of incubation with 0, 200 and 600 μM of DII or 96 h of incubation with 0 and 100 μM of DII, cells were washed 3 times with PBS and propidium iodide (PI, final concentration 50 μg/ml) was added to stain dead cells. PI incubation was performed for 10 min in the dark at room temperature. DMSO (0–0.7%) and chloroquine (50–200 μM) were used as vehicle and positive controls, respectively. Images were acquired with a Nikon Eclipse TE 2000 fluorescence microscope. The number of stained cells was analyzed manually. At least 3 independent experiments were analyzed.

[8] = 600 μM, short exposure times, no difference after 48 h

## CC(C)c1cccc(C(C)C)c1-n1ccnc1 [Compound 11]
[1]; 50 μM, 96 h
  survival of unc-29 null mutant strain, long exposure: resistant
[1]; 600 μM, 4-72 h
  survival of lev-8 mutants vs wild-type: as sensitive to DII as the wild-type
  survival of unc-63 mutants vs wild-type: as sensitive to DII as the wild-type
[1]; [8]
  survival of lev-1 mutants vs wild-type: slightly resistant
  survival of unc-38 mutants vs wild-type: slightly resistant
[1]; CB1072, 600 μM, 4-72 h, listed as DII
  survival of unc-29(e1072)I null mutants vs wild-type: extremely resistant
[1]; myo-3::unc-29, unc-29(e1072)I, 600 μM
  DII-mediated death in muscle unc-29 rescue strain OAR61: completely restores
[2]
  worm death: 100%
[3]; 24 h of exposure, micromolar concentrations
  lethality: 100%
[3]; 8 h of exposure
  LC50: 448.5 ± 1.1 µM
[3]; 24 h of exposure
  LC50: 342.3 ± 1 µM
[3]; 96 h of exposure, 13°C
  LC50: 23.4 ± 1.06 µM
[4]
  paralysis in cut specimens: unable to induce paralysis; also recorded: fail to produce significant paralysis
[5]
  recovery of survivors after transfer to regular NGM plates: reversible
[6]
  larval viability (larvae that reached the pupal stage): does not affect Drosophila larval viability
[7]; 0–600 μM, 8 h
  cell viability: do not affect viability on HEK-293 cells
[7]; up to 100 μM, 96 h
  cell viability: do not affect cell viability
